The test addresses α1. The experiment in a line: Radioligand binding, [3H]prazosin, human cerebral cortex (HCC) membranes. The conditions noted are these: 22° C., 30 minutes. The method, then: Tissue preparation: Membrane suspensions were prepared from human cerebral cortex (HCC) obtained from the UCI Organ and Tissue Bank and rat kidney cortex (RKC). Briefly, tissues (1 g) were homogenized in 25 ml of iced-cold 5 mM tris, pH 7.4 with a Polytron homogenizer for 30 secs at setting# 7, and centrifuged for. 10-12 minutes at 300×g at 4° C. The supernatant was filtered: through 2 layers of gauze and diluted 1:2 with 50 mM Tris-HCI buffer, pH 7.4, then centrifuged at 49,000×g for 20 minutes. The pellet fraction was washed 3 times (resuspended in Tris-HCl buffer and centrifuged for 20 minutes at 49,000×g). The pellet was then stored at −80° C. until the binding assay.
Binding studies: The radioligands [^3H]rauwolscine (specific activity 80 Ci/mmol) and [^3H]prazosin (specific activity 76 Ci/mmol) were obtained from New England Nuclear, Boston, Mass. Frozen membrane pellet was resuspended in 25 mM glycine/glycine, pH 7.4 and incubated with radioligand under the following conditions: CHO—C10, CHO—RNG, HT-29-[^3H]rauwolscine, 22° C., 30 minutes; RKC-[^3H]rauwolscine, 0° C., 120 minutes; and, HCC-[^3H]prazosin, 22° C., 30 minutes in a final volume of 500 μl. At the end of the incubation period, the samples were filtered through glass fiber filters (Whatman GF/B) in a 96 well cell harvester and rapidly washed four times with 4 ml of ice-cold 50 mM, Tris-HCl buffer. The filters were then oven dried and transferred to scintillation vials containing 5 ml of Beckman's Ready Protein® scintillation cocktail for counting. […] Protein concentrations were determined with a protein assay kit from Bio Rad. Binding isotherms, equilibrium dissociation and affinity constants were analyzed and determined by the non-linear least squares curve fitting programs AccuFit Competition/Saturation by Beckman.
Frozen membrane pellet was resuspended either 50 mM tris, 2 mM EGTA, 1 mM MgCl2, pH7.5 (RbKC, RbICB-[^3H]brimonidine); 50 mM tris, 0.5 mM EDTA, 5 mM NaCl, pH 7.7 (RbICB-[^3H]rauwolscine); 25 mM glycine/glycine, pH 7.4 (RtKC, CHO—C10, CH—RNG, HT-29, HCC) or 50 mM tris, 0.1 mM MnCl2, pH7.7 (RtCC). Membrane protein homogenate (75-200 μg) was incubated with radioligand under the following conditions: RbKC and RbICB-[^3H]rauwolscine, 22° C., 45 minutes; RtCC and RbICB-[^3H]brimondine, 22° C., 90 minutes; CHO—C10, CHO—RNG and HT-29-[^3H]rauwolscine, 22° C., 30 minutes; HCC—[^3H]prazosin, 22° C., 30 minutes; and, in a final volume of 250 or 500 μl. At the end of the incubation period, the samples were filtered through glass fiber filters (Whatman GF/B) in a 24 or 96 well cell harvester and rapidly washed four times with 4 mls of iced-cold 50 mM Tris-HCl buffer. The filters were then oven dried and transferred to scintillation vials containing 10 mls of, Beckman's Ready Protein® scintillation cocktail for counting. […] Protein concentrations were determined with a protein assay kit from Bio Rad. Binding isotherms, equilibrium dissociation and affinity constants were analyzed and determined by the non-linear least squares curve fitting programs EBDA (BioSoft) or AccuFit Competition/Saturation by Beckman.
The radioligands [^3H]rauwolscine (specific activity 80 Ci/mmol) and [^3H]prazosin (specific activity 76 Ci/mmol) were obtained from New England Nuclear, Boston, Mass. Frozen membrane pellet was resuspended in 25 mM glycine/glycine, pH 7.4 and incubated with radioligand under the following conditions: CHO—C10, CHO—RNG-[^3H]rauwolscine, 22° C., 30 minutes; and, HCC—[^3H]prazosin, 22° C., 30 minutes in a final volume of 500 ul.

Bounds are passed on as bounds.

A word on the Ki: it is the dissociation constant of the complex between target and ligand, obtained from inhibition or displacement. On to `CCCCNC1=NCCO1`, for which the Ki was over 100000 nM.

For the compound `CC(C)C1C2CCC(C2)C1NC1=NCCO1` (centres unmarked), the Ki was over 10000 nM.

In the case of `CCCCC1C2CCC(C2)C1NC1=NCCO1` (centres unmarked), the Ki is 5820 nM.

On to `CCCCC1C2CCC(C2)C1NC1=NCCS1` (centres unmarked), for which the affinity, expressed as Ki, was 42000 nM.

In turn, `C1CCC(C2C3CCC(C3)C2NC2=NCCN2)CC1` (centres unmarked) displayed a Ki of 17200 nM.

For the origin of these results see patent US6706747B2, “Conformationally rigid bicyclic and adamantane derivatives useful as α2-adrenergic blocking agents” (Allergan, Inc., priority 1994, dated 2004).
